# ChEMBL document CHEMBL5303573, “Mapping human microbiome drug metabolism by gut bacteria and their genes” (Nature, 2019)
# Assays:
# [1] = The drug is tested on Bacteroides fragilis strain: HMW615 for biotransformation. The drug concentrations were measured before and after a 12-h incubation by liquid-chromatography-coupled mass spectrometry (LC–MS); details: 2 µM
# [2] = The drug is tested on Bifidobacterium breve strain: DSM20213 for biotransformation. The drug concentrations were measured before and after a 12-h incubation by liquid-chromatography-coupled mass spectrometry (LC–MS); details: 2 µM
# [3] = The drug is tested on Bacteroides xylanisolvens strain: DSM18836 for biotransformation. The drug concentrations were measured before and after a 12-h incubation by liquid-chromatography-coupled mass spectrometry (LC–MS); details: 2 µM
# [4] = anaerostipes sp., 12 h, 2 µM
# Description: The drug is tested on Anaerostipes sp. strain: fecal isolate for biotransformation. The drug concentrations were measured before and after a 12-h incubation by liquid-chromatography-coupled mass spectrometry (LC–MS)
# [5] = bacteroides thetaiotaomicron, 12 h, 2 µM
# Description: The drug is tested on Bacteroides thetaiotaomicron strain: VPI-5482 for biotransformation. The drug concentrations were measured before and after a 12-h incubation by liquid-chromatography-coupled mass spectrometry (LC–MS)
# [6] = The drug is tested on Bacteroides ovatus strain: ATCC8483 for biotransformation. The drug concentrations were measured before and after a 12-h incubation by liquid-chromatography-coupled mass spectrometry (LC–MS); details: 2 µM
# [7] = The drug is tested on Ruminococcus gnavus strain: ATCC29149 for biotransformation. The drug concentrations were measured before and after a 12-h incubation by liquid-chromatography-coupled mass spectrometry (LC–MS); details: mediterraneibacter gnavus, 2 µM
# [8] = The drug is tested on Dorea formicigenerans strain: ATCC27755 for biotransformation. The drug concentrations were measured before and after a 12-h incubation by liquid-chromatography-coupled mass spectrometry (LC–MS); details: 2 µM
# [9] = The drug is tested on Eubacterium hallii strain: DSM3353 for biotransformation. The drug concentrations were measured before and after a 12-h incubation by liquid-chromatography-coupled mass spectrometry (LC–MS); details: anaerobutyricum hallii, 2 µM
# [10] = The drug is tested on Alistipes indistinctus strain: DSM22520 for biotransformation. The drug concentrations were measured before and after a 12-h incubation by liquid-chromatography-coupled mass spectrometry (LC–MS); details: 2 µM
# [11] = The drug is tested on Eggerthella lenta strain: ATCC25559 for biotransformation. The drug concentrations were measured before and after a 12-h incubation by liquid-chromatography-coupled mass spectrometry (LC–MS); details: 2 µM
# [12] = The drug is tested on Bacteroides coprophilus strain: DSM18228 for biotransformation. The drug concentrations were measured before and after a 12-h incubation by liquid-chromatography-coupled mass spectrometry (LC–MS); details: 2 µM
# [13] = The drug is tested on Clostridium asparagiforme strain: DSM15981 for biotransformation. The drug concentrations were measured before and after a 12-h incubation by liquid-chromatography-coupled mass spectrometry (LC–MS); type: ADME; parameters: dose 2 uM, timepoint 0 vs 12 hours; details: enterocloster asparagiformis, 2 µM
# [14] = The drug is tested on Bacteroides vulgatus strain: ATCC8482 for biotransformation. The drug concentrations were measured before and after a 12-h incubation by liquid-chromatography-coupled mass spectrometry (LC–MS); details: phocaeicola vulgatus, 2 µM
# [15] = The drug is tested on Ruminococcus lactaris strain: ATCC29176 for biotransformation. The drug concentrations were measured before and after a 12-h incubation by liquid-chromatography-coupled mass spectrometry (LC–MS); details: 2 µM
# [16] = The drug is tested on Bacteroides cellulosilyticus strain: DSM14838 for biotransformation. The drug concentrations were measured before and after a 12-h incubation by liquid-chromatography-coupled mass spectrometry (LC–MS); details: 2 µM
# [17] = The drug is tested on Bacteroides uniformis strain: ATCC8492 for biotransformation. The drug concentrations were measured before and after a 12-h incubation by liquid-chromatography-coupled mass spectrometry (LC–MS); details: 2 µM
# [18] = bacteroides intestinalis, 12 h, 2 µM
# Description: The drug is tested on Bacteroides intestinalis strain: DSM17393 for biotransformation. The drug concentrations were measured before and after a 12-h incubation by liquid-chromatography-coupled mass spectrometry (LC–MS)
# [19] = The drug is tested on Providencia rettgeri strain: DSM1131 for biotransformation. The drug concentrations were measured before and after a 12-h incubation by liquid-chromatography-coupled mass spectrometry (LC–MS); type: ADME; parameters: dose 2 uM, timepoint 0 vs 12 hours; details: 2 µM
# [20] = bifidobacterium adolescentis, 12 h, 2 µM
# Description: The drug is tested on Bifidobacterium adolescentis strain: ATCC 15703 for biotransformation. The drug concentrations were measured before and after a 12-h incubation by liquid-chromatography-coupled mass spectrometry (LC–MS)
SMILES,Bacterial Biotransformation [1],Bacterial Biotransformation [2],Bacterial Biotransformation [3],Bacterial Biotransformation [4],Bacterial Biotransformation [5],Bacterial Biotransformation [6],Bacterial Biotransformation [7],Bacterial Biotransformation [8],Bacterial Biotransformation [9],Bacterial Biotransformation [10],Bacterial Biotransformation [11],Bacterial Biotransformation [12],Bacterial Biotransformation [13],Bacterial Biotransformation [14],Bacterial Biotransformation [15],Bacterial Biotransformation [16],Bacterial Biotransformation [17],Bacterial Biotransformation [18],Bacterial Biotransformation [19],Bacterial Biotransformation [20]
CC(NC(C)(C)C)C(=O)c1cccc(Cl)c1 (stereo unspecified) [BUPROPION],Compound NOT metabolized,Compound NOT metabolized,Compound NOT metabolized,Compound NOT metabolized,Compound NOT metabolized,Compound metabolized,Compound NOT metabolized,Compound NOT metabolized,Compound NOT metabolized,Compound NOT metabolized,Compound NOT metabolized,Compound metabolized,Compound NOT metabolized,Compound NOT metabolized,Compound NOT metabolized,Compound NOT metabolized,Compound NOT metabolized,–,–,–
OC(CCN1CCCCC1)(c1ccccc1)C1CC2C=CC1C2 (stereo unspecified) [BIPERIDEN],Compound NOT metabolized,Compound NOT metabolized,–,Compound NOT metabolized,Compound NOT metabolized,Compound NOT metabolized,Compound NOT metabolized,Compound NOT metabolized,Compound NOT metabolized,Compound NOT metabolized,Compound NOT metabolized,Compound NOT metabolized,Compound NOT metabolized,Compound metabolized,Compound NOT metabolized,Compound NOT metabolized,Compound NOT metabolized,Compound NOT metabolized,Compound NOT metabolized,Compound NOT metabolized
CCOC(=O)C1=C(C)NC(C)=C(C(=O)OC)C1c1cccc([N+](=O)[O-])c1 (stereo unspecified) [NITRENDIPINE],Compound metabolized,Compound metabolized,Compound metabolized,Compound metabolized,Compound metabolized,–,Compound metabolized,Compound metabolized,Compound metabolized,Compound metabolized,Compound metabolized,Compound NOT metabolized,Compound metabolized,Compound metabolized,Compound metabolized,Compound metabolized,Compound metabolized,Compound metabolized,Compound metabolized,Compound metabolized
COc1ccc2[nH]c([S+]([O-])Cc3ncc(C)c(OC)c3C)nc2n1 (stereo unspecified) [TENATOPRAZOLE],Compound metabolized,Compound metabolized,Compound metabolized,–,Compound metabolized,Compound metabolized,Compound metabolized,Compound metabolized,Compound metabolized,Compound metabolized,Compound metabolized,Compound metabolized,Compound metabolized,Compound metabolized,–,Compound metabolized,Compound metabolized,Compound metabolized,Compound metabolized,Compound metabolized
CN1C(=O)CCS(=O)(=O)C1c1ccc(Cl)cc1 (stereo unspecified) [CHLORMEZANONE],Compound NOT metabolized,Compound NOT metabolized,Compound NOT metabolized,Compound NOT metabolized,Compound NOT metabolized,Compound NOT metabolized,–,–,Compound NOT metabolized,Compound metabolized,Compound NOT metabolized,Compound NOT metabolized,Compound metabolized,Compound metabolized,–,Compound NOT metabolized,Compound NOT metabolized,Compound NOT metabolized,–,Compound NOT metabolized
CN1CCc2cccc3c2[C@H]1Cc1ccc(O)c(O)c1-3 [APOMORPHINE],Compound NOT metabolized,Compound NOT metabolized,Compound NOT metabolized,Compound NOT metabolized,Compound NOT metabolized,Compound NOT metabolized,Compound NOT metabolized,Compound NOT metabolized,Compound NOT metabolized,Compound NOT metabolized,Compound NOT metabolized,–,Compound NOT metabolized,Compound NOT metabolized,Compound NOT metabolized,Compound NOT metabolized,Compound NOT metabolized,Compound NOT metabolized,Compound NOT metabolized,Compound NOT metabolized
CCOc1cc(CC(=O)N[C@@H](CC(C)C)c2ccccc2N2CCCCC2)ccc1C(=O)O [REPAGLINIDE],Compound metabolized,Compound metabolized,Compound metabolized,Compound NOT metabolized,–,Compound NOT metabolized,Compound NOT metabolized,Compound NOT metabolized,Compound metabolized,Compound NOT metabolized,Compound NOT metabolized,Compound metabolized,Compound metabolized,Compound NOT metabolized,Compound NOT metabolized,Compound metabolized,Compound metabolized,Compound metabolized,Compound NOT metabolized,Compound NOT metabolized
CCN(CC)C(=O)/C(C#N)=C/c1cc(O)c(O)c([N+](=O)[O-])c1 [ENTACAPONE],Compound metabolized,Compound metabolized,Compound metabolized,Compound metabolized,Compound metabolized,Compound metabolized,Compound metabolized,Compound metabolized,Compound metabolized,Compound metabolized,Compound metabolized,Compound metabolized,Compound metabolized,Compound metabolized,Compound metabolized,Compound metabolized,Compound metabolized,Compound metabolized,–,Compound metabolized
